Measurements taken from patent US11174253B2, “Compound and pharmaceutical composition containing the same” (ALPHALA CO., LTD., priority 2017, dated 2021).

Tested on: hepatocellular carcinoma cell line Hep3B
Test: Growth inhibition of Hep3B cells, 48 hr treatment, Hoechst 33342 nucleus count (GE InCell 2200)
Format: cell-based
Conditions: Homo sapiens, Table 1, ratio of number of tumor cells treated with 10 μM compound to non-treated cells
Experimental: The potency of selected compounds was defined by the growth inhibition ability to the hepatocellular carcinoma cell line Hep3B. The Hep3B cells were treated with selected compounds for 48 hr under 37° C., 5% CO2, and 95% relative humidity.
The number of treated cells was determined by GE InCell 2200 system, and treated cells were stained with Hoechst 33342 which can reveal the remained nucleus in culture plate. The proportion of survival cells then were calculated with the ratio of treated/non-treated cells. The growth inhibition/cytotoxic effect of selected compounds were evaluated by the following protocol of NCI-60 screening platform. The human tumor cell lines are plating on a 96 well plate in a fixed density 24 hr prior compound treatment. Compounds with multiple concentrations are then added into each well for further 48 hr incubation. Cell viability is assessed by MTS method and the potency of compound is represented by GI50 and LC50 calculated by MTS result.
Herein, the “Ratio in 10 μM (%)” in the following Tables 1-6 refers to the ratio of the number of tumor cells treated with 10 μM of selected compounds to the number of non-treated tumer cells.

SMILES | viability at 10 µM
CCOc1ccc(-c2nnc(NC(=O)Cc3ccc4nc(N)sc4c3)s2)nc1 [Compound 1-30, 2-(2-aminobenzo[d]thiazol-6-yl)-N-(5-(5-ethoxypyridin-2-yl)-1,3,4-thiadiazol-2-yl)acetamide] | 37%
CC(C)Oc1ccc(-c2nnc(NC(=O)Cc3ccc4nc(N)sc4c3)s2)cc1 [Compound 1-14, 2-(2-aminobenzo[d]thiazol-6-yl)-N-(5-(4-isopropoxyphenyl)-1,3,4-thiadiazol-2-yl)acetamide] | 71%

Same assay, conditions: Homo sapiens, Table 3, ratio of number of tumor cells treated with 10 μM compound to non-treated cells

SMILES | viability at 10 µM
CCOc1ccc(-c2nc(NC(=O)Cc3ccc4nc(N)sc4c3)sc2Oc2ccccc2)cc1 [Compound 3-13, 2-(2-aminobenzo[d]thiazol-6-yl)-N-(4-(4-ethoxyphenyl)-5-phenoxythiazol-2-yl)acetamide] | 58%
CCOc1ccc(-c2csc(NC(=O)Cc3ccc4nc(N)sc4c3)n2)c(OCC)c1 [Compound 3-12, 2-(2-aminobenzo[d]thiazol-6-yl)-N-(4-(2,4-diethoxyphenyl)thiazol-2-yl)acetamide] | 50%
COc1ccc(-c2sc(NC(=O)Cc3ccc4nc(N)sc4c3)nc2-c2ccc(C)cc2)cc1OC [Compound 3-5, 2-(2-aminobenzo[d]thiazol-6-yl)-N-(5-(3,4-dimethoxyphenyl)-4-(p-tolyl)thiazol-2-yl)acetamide] | 85%

Same assay, conditions: Homo sapiens, Table 5, ratio of number of tumor cells treated with 10 μM compound to non-treated cells

SMILES | viability at 10 µM
Cc1cc(Oc2sc(NC(=O)c3ccc([N+](=O)[O-])s3)nc2-c2ccc(C(C)(C)C)cc2)cc(C)c1Br [Compound 5-99, N-(5-(4-bromo-3,5-dimethylphenoxy)-4-(4-(tert-butyl)phenyl)thiazol-2-yl)-5-nitrothiophene-2-carboxamide] | 40%
CC(C)(C)C#Cc1ccc(-c2nc(NC(=O)c3ccc([N+](=O)[O-])s3)sc2Oc2ccccc2)s1 [Compound 5-41, N-(4-(5-(3,3-dimethylbut-1-yn-1-yl)thiophen-2-yl)-5-phenoxythiazol-2-yl)-5-nitrothiophene-2-carboxamide] | 41%
O=C(Nc1nc(-c2ccc(Br)cc2)c(Oc2ccccc2)s1)c1ccc([N+](=O)[O-])s1 [Compound 5-1, N-(4-(4-bromophenyl)-5-phenoxythiazol-2-yl)-5-nitrothiophene-2-carboxamide] | 66%
COc1cccc(-c2nc(NC(=O)c3ccc([N+](=O)[O-])s3)sc2Oc2ccccc2)c1 [Compound 5-4, N-(4-(3-methoxyphenyl)-5-phenoxythiazol-2-yl)-5-nitrothiophene-2-carboxamide] | 63%
CCOc1ccc(-c2nc(NC(=O)c3ccc([N+](=O)[O-])s3)sc2Oc2ccccc2)cn1 [Compound 5-51, N-(4-(6-ethoxypyridin-3-yl)-5-phenoxythiazol-2-yl)-5-nitrothiophene-2-carboxamide] | 43%
NCCCCCOc1ccc(-c2nc(NC(=O)c3ccc([N+](=O)[O-])s3)sc2Oc2ccccc2)cc1 [Compound 5-92, N-(4-(4-((5-aminopentyl)oxy)phenyl)-5-phenoxythiazol-2-yl)-5-nitrothiophene-2-carboxamide] | 46%
CCOc1ccc(-c2nc(NC(=O)c3ccc([N+](=O)[O-])s3)sc2Oc2ccccc2)c(F)c1 [Compound 5-53, N-(4-(4-ethoxy-2-fluorophenyl)-5-phenoxythiazol-2-yl)-5-nitrothiophene-2-carboxamide] | 41%
CNC(=O)c1ccc(-c2nc(NC(=O)c3ccc([N+](=O)[O-])s3)sc2Oc2ccc(F)cc2)cc1 [Compound 5-35, N-(5-(4-fluorophenoxy)-4-(4-(methylcarbamoyl)phenyl)thiazol-2-yl)-5-nitrothiophene-2-carboxamide] | 68%
CCCOc1ccc(-c2nc(NC(=O)c3ccc([N+](=O)[O-])s3)sc2Oc2ccc(Cl)c(Cl)c2)cc1 [Compound 5-44, N-(5-(3,4-dichlorophenoxy)-4-(4-propoxyphenyl)thiazol-2-yl)-5-nitrothiophene-2-carboxamide] | 41%
COCCOc1ccc(-c2nc(NC(=O)c3ccc([N+](=O)[O-])s3)sc2Oc2ccccc2)cc1 [Compound 5-16, N-(4-(4-(2-methoxyethoxy)phenyl)-5-phenoxythiazol-2-yl)-5-nitrothiophene-2-carboxamide] | 59%
CCOc1ccc(-c2nc(NC(=O)c3ccc([N+](=O)[O-])s3)sc2Oc2ccc(F)cc2)cc1 [Compound 5-55, N-(4-(4-ethoxyphenyl)-5-(4-fluorophenoxy)thiazol-2-yl)-5-nitrothiophene-2-carboxamide] | 47%
CCCCc1ccc(-c2nc(NC(=O)c3ccc([N+](=O)[O-])s3)sc2Oc2ccc(C(C)(C)CC)cc2)cc1 [Compound 5-104, N-(4-(4-butylphenyl)-5-(4-(tert-pentyl)phenoxy)thiazol-2-yl)-5-nitrothiophene-2-carboxamide] | 56%
CCCc1ccc(-c2nc(NC(=O)c3ccc([N+](=O)[O-])s3)sc2Oc2ccccc2)cc1 [Compound 5-77, 5-nitro-N-(5-phenoxy-4-(4-propylphenyl)thiazol-2-yl)thiophene-2-carboxamide] | 33%
CCOc1cc(OCC)cc(-c2nc(NC(=O)c3ccc([N+](=O)[O-])s3)sc2Oc2ccccc2)c1 [Compound 5-36, N-(4-(3,5-diethoxyphenyl)-5-phenoxythiazol-2-yl)-5-nitrothiophene-2-carboxamide] | 39%

Same assay, conditions: Homo sapiens, Table 6, ratio of number of tumor cells treated with 10 μM compound to non-treated cells

SMILES | viability at 10 µM
Cc1ccc(-c2nc(NC(=O)c3ccc([N+](=O)[O-])o3)sc2-c2ccc(Br)cc2)cc1 [Compound 6-32, N-(5-(4-bromophenyl)-4-(p-tolyl)thiazol-2-yl)-5-nitrofuran-2-carboxamide] | 27%
CC(C)(C)c1ccc(-c2nc(NC(=O)c3ccc([N+](=O)[O-])s3)sc2-c2ccc(F)cc2F)cc1 [Compound 6-39, N-(4-(4-(tert-butyl)phenyl)-5-(2,4-difluorophenyl)thiazol-2-yl)-5-nitrothiophene-2-carboxamide] | 31%
CC(C)(C)c1ccc(-c2nc(NC(=O)c3ccc([N+](=O)[O-])s3)sc2C#N)cc1 [Compound 6-50, N-(4-(4-(tert-butyl)phenyl)-5-cyanothiazol-2-yl)-5-nitrothiophene-2-carboxamide] | 53%
CC(C)(C)c1ccc(-c2nc(NC(=O)c3ccc([N+](=O)[O-])s3)sc2-c2cccc(Br)c2)cc1 [Compound 6-58, N-(5-(3-bromophenyl)-4-(4-(tert-butyl)phenyl)thiazol-2-yl)-5-nitrothiophene-2-carboxamide] | 32%
CC(C)(C)c1ccc(-c2nc(NC(=O)c3ccc([N+](=O)[O-])s3)sc2-c2ccccc2Br)cc1 [Compound 6-57, N-(5-(2-bromophenyl)-4-(4-(tert-butyl)phenyl)thiazol-2-yl)-5-nitrothiophene-2-carboxamide] | 29%
CCOc1ccc(-c2nc(NC(=O)c3ccc([N+](=O)[O-])s3)sc2Cc2ccc(F)cc2)cc1 [Compound 6-35, N-(4-(4-ethoxyphenyl)-5-(4-fluorobenzyl)thiazol-2-yl)-5-nitrothiophene-2-carboxamide] | 47%
Cc1ccc(-c2nc(NC(=O)c3ccc([N+](=O)[O-])s3)sc2-c2cccc([N+](=O)[O-])c2)cc1 [Compound 6-3, 5-nitro-N-(5-(3-nitrophenyl)-4-(p-tolyl)thiazol-2-yl)thiophene-2-carboxamide] | 84%
